Results from PMC10382584, “Macrocyclization of linear molecules by deep learning to facilitate macrocyclic drug candidates discovery” (Nature Communications, 2023).
Values joined by “and” are separate entries in the source; they are usually repeats but may differ in a detail not shown here. Identical values can stand only once. Like-named read-outs stand apart in the source and are kept apart here.

Legend:
HEL cells = assay: Cell proliferation assay (CCK-8), HEL cells; format: cell-based, human; conditions: for Inhibition (%): single wells, replicates 1 and 2
DSS-induced colitis mice = assay: In vivo efficacy study, DSS-induced colitis model; design: species or system male BALB/c mice; conditions: for DAI score (Fig. 6b) / Body weight (Fig. 6a): individual mice
Protocol: Model mice were divided into four groups and eight mice were included in each group on day 8. […] Meanwhile, solvent was given intragastrically to the control group and model group. On day 15, the mice were sacrificed, and the length and weight of each colon were measured.
Body weight, the stool consistency, and the presence of blood in feces were recorded daily in the morning. […] The maximum score was 9, which was the sum of the scores. About 1-cm colon tissue, which is 0.5 cm away from the anal margin, was collected, and the ileocecal area was used for histopathological examination. After H&E staining, the tissues were scored under single-blind conditions to evaluate the levels of inflammation and tissue damage in the colons following the criteria proposed by ref. [62]. Statistical analyses were performed using SPSS v24.0.

JAK2 = target: T1, JAK2 (Homo sapiens, UniProt O60674); assay: JAK2 enzyme assay (Z'-LYTE kinase assay kit); format: biochemical; conditions: JAK2, 25 μM ATP; mean ± SD, n = 3; read-out: Enzyme Inhibitory Activity (IC50)
T1 construct: 0.05–0.42 ng JAK2, 2 μM peptide substrate (Tyr06)

[1] = 3.5% DSS colitis mice, compound 3 5 mg/kg, Fedratinib 10 mg/kg, intragastric, day 8 to day 14

T1 sequence (O60674 whole entry): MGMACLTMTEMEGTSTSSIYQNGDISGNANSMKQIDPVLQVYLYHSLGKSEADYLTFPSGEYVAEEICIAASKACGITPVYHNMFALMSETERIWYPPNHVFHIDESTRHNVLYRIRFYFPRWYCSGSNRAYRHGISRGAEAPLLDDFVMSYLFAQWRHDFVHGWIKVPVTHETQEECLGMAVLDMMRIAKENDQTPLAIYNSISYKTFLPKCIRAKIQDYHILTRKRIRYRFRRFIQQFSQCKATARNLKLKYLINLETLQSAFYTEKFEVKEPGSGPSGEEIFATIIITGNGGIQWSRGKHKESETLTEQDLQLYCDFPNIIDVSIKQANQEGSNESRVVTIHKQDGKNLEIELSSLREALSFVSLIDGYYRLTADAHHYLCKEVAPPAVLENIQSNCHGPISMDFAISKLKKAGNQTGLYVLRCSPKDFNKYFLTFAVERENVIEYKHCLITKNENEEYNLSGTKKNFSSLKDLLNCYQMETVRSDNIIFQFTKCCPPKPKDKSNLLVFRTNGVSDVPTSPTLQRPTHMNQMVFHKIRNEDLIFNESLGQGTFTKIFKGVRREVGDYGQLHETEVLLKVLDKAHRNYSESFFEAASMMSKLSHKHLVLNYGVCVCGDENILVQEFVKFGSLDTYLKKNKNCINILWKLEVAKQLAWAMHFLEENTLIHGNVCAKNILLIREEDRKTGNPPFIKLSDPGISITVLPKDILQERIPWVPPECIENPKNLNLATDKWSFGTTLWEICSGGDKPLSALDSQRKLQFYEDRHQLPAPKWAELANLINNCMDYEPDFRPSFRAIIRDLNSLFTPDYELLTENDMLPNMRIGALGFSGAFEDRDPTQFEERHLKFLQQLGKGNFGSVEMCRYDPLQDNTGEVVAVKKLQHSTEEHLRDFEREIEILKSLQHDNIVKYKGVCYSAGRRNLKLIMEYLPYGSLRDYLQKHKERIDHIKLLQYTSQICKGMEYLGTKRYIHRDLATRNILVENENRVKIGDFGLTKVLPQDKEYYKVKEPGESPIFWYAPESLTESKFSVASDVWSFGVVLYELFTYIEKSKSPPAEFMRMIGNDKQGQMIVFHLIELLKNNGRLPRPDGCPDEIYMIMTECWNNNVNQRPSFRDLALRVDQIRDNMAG

Cc1cnc2nc1Nc1cccc(c1)COCC=CCOCc1cc(ccc1OCCN1CCCC1)N2 [Compound 3]
Inhibition (%) (HEL cells; HEL cell lines, 0.0977 μM): 7.532% and 3.479% and 4.355% and 9.373% and 0.491% and 6.308% | Inhibition (%) (HEL cells; HEL cell lines, 0.1953 μM): 13.777% and 7.751% and 6.875% and 6.544% and 1.513% and 5.600% | Inhibition (%) (HEL cells; HEL cell lines, 0.3906 μM): 19.145% and 12.682% and 3.259% and 5.522% and 6.779% and 5.600% | Inhibition (%) (HEL cells; HEL cell lines, 0.7813 μM): 21.994% and 15.749% and 13.120% and 10.788% and 3.085% and 13.618% | Inhibition (%) (HEL cells; HEL cell lines, 1.5625 μM): 37.004% and 30.321% and 23.090% and 24.936% and 24.700% and 25.722% | Inhibition (%) (HEL cells; HEL cell lines, 3.1250 μM, 3.125 µM): 60.340% and 50.260% and 45.440% and 49.460% and 46.787% and 48.123% | Inhibition (%) (HEL cells; HEL cell lines, 6.2500 μM, 6.25 µM): 81.375% and 75.240% and 74.473% and 74.140% and 73.276% and 76.577% | Inhibition (%) (HEL cells; HEL cell lines, 12.5000 μM, 12.5 µM): 87.949% and 81.375% and 82.142% and 84.437% and 81.607% and 79.564% | IC50 (HEL cells; HEL cell lines, mean of 2 replicates, read-out: IC50/μM mean, cellular antiproliferative activity): 3.05 µM | IC50 (HEL cells; HEL cell lines, single-replicate fits, read-out: IC50/μM (individual replicates), cellular antiproliferative activity): 3.33 µM and 2.78 µM | IC50 (HEL cells; HEL cells, 72 h, mean ± SD, read-out: Cellular Antiproliferative Activity (IC50) HEL): 3.06 ± 0.39 µM | histological scores (H&E, Ameho criteria) (DSS-induced colitis mice; 3.5% DSS colitis mice, compound 3 5 mg/kg, Fedratinib 10 mg/kg): lower | body weight change (DSS-induced colitis mice; [1]): alleviate the decrease of body weight | disease activity index (DAI) scores (DSS-induced colitis mice; [1]): significantly decreased | ratio of colon weight to length (DSS-induced colitis mice; 3.5% DSS colitis mice, compound 3 5 mg/kg, Fedratinib 10 mg/kg, compared to the model group): decreased | DAI score (Fig. 6b) (DSS-induced colitis mice; Compound 3 5 mg/kg, day 0): 0 | Body weight (Fig. 6a) (DSS-induced colitis mice; Compound 3 5 mg/kg, day 0, 5 mg/kg): 21.4 and 20.3 and 22.6 and 21.9 (2×) and 23.4 and 23.9 and 21.5 | DAI score (Fig. 6b) (DSS-induced colitis mice; Compound 3 5 mg/kg, day 1, 5 mg/kg): 0 (7×) and 1 | Body weight (Fig. 6a) (DSS-induced colitis mice; Compound 3 5 mg/kg, day 1, 5 mg/kg, in g (unit assumed)): 22.2 and 21 and 23.1 and 22.4 and 23.5 and 21.4 and 24.6 and 22.7 | DAI score (Fig. 6b) (DSS-induced colitis mice; Compound 3 5 mg/kg, day 2, 5 mg/kg): 2 and 0 (5×) and 1 (2×) | Body weight (Fig. 6a) (DSS-induced colitis mice; Compound 3 5 mg/kg, day 2, 5 mg/kg, in g (unit assumed)): 21.8 and 22.8 and 22.4 | DAI score (Fig. 6b) (DSS-induced colitis mice; Compound 3 5 mg/kg, day 3, 5 mg/kg): 0 (5×) and 2 (3×) | DAI score (Fig. 6b) (DSS-induced colitis mice; Compound 3 5 mg/kg, day 4, 5 mg/kg): 2 (4×) and 0 and 1 (2×) and 3 | Body weight (Fig. 6a) (DSS-induced colitis mice; Compound 3 5 mg/kg, day 4, 5 mg/kg, in g (unit assumed)): 23.2 and 19.6 and 22.9 and 22.3 and 22.4 and 22 and 21.1 and 22.5 | DAI score (Fig. 6b) (DSS-induced colitis mice; Compound 3 5 mg/kg, day 5, 5 mg/kg): 3 (2×) and 5 and 1 (3×) and 6 and 2 | Body weight (Fig. 6a) (DSS-induced colitis mice; Compound 3 5 mg/kg, day 5, 5 mg/kg, in g (unit assumed)): 23 and 19.1 and 22 and 19.4 and 20.5 and 20.9 and 20.6 and 21.4 | DAI score (Fig. 6b) (DSS-induced colitis mice; Compound 3 5 mg/kg, day 6, 5 mg/kg): 4 (2×) and 5 and 1 (2×) and 2 and 7 and 6 | Body weight (Fig. 6a) (DSS-induced colitis mice; Compound 3 5 mg/kg, day 6, 5 mg/kg, in g (unit assumed)): 22.2 and 18.3 and 21.8 and 20.1 and 18.5 and 18.4 and 20.2 and 21.3 | DAI score (Fig. 6b) (DSS-induced colitis mice; Compound 3 5 mg/kg, day 7, 5 mg/kg): 7 (3×) and 2 (2×) and 6 and 3 and 4 | Body weight (Fig. 6a) (DSS-induced colitis mice; Compound 3 5 mg/kg, day 7, 5 mg/kg, in g (unit assumed)): 20.9 and 16.9 and 20.5 and 19.8 and 16.7 and 16.5 and 20.1 and 19.7 | DAI score (Fig. 6b) (DSS-induced colitis mice; Compound 3 5 mg/kg, day 8, 5 mg/kg): 0 (3×) and 5 and 3 (2×) and 1 (2×) | Body weight (Fig. 6a) (DSS-induced colitis mice; Compound 3 5 mg/kg, day 8, 5 mg/kg, in g (unit assumed)): 20.9 and 15.8 and 22.3 and 21.2 and 16.4 and 21.3 and 21.8 | DAI score (Fig. 6b) (DSS-induced colitis mice; Compound 3 5 mg/kg, day 9, 5 mg/kg): 1 and 0 (5×) and 2 | Body weight (Fig. 6a) (DSS-induced colitis mice; Compound 3 5 mg/kg, day 9, 5 mg/kg, in g (unit assumed)): 20.2 and 15.8 and 22.7 and 22.9 and 16.5 and 21.9 and 22 | DAI score (Fig. 6b) (DSS-induced colitis mice; Compound 3 5 mg/kg, day 10, 5 mg/kg): 1 (4×) and 2 (3×) | Body weight (Fig. 6a) (DSS-induced colitis mice; Compound 3 5 mg/kg, day 10, 5 mg/kg, in g (unit assumed)): 19.5 and 15.3 and 22.2 and 22.8 and 16.1 and 21.9 and 22.6 | DAI score (Fig. 6b) (DSS-induced colitis mice; Compound 3 5 mg/kg, day 11): 0 | Body weight (Fig. 6a) (DSS-induced colitis mice; Compound 3 5 mg/kg, day 11, 5 mg/kg): 20.1 and 15.7 and 22 (2×) and 22.9 and 16.7 and 22.8 | DAI score (Fig. 6b) (DSS-induced colitis mice; Compound 3 5 mg/kg, day 12, 5 mg/kg): 0 (6×) and 1 | Body weight (Fig. 6a) (DSS-induced colitis mice; Compound 3 5 mg/kg, day 12, 5 mg/kg, in g (unit assumed)): 21 and 16.6 and 22.3 and 23 and 17.2 and 22.1 and 22.9 | Body weight (Fig. 6a) (DSS-induced colitis mice; Compound 3 5 mg/kg, day 13, 5 mg/kg, in g (unit assumed)): 21.7 and 17.7 and 21.8 and 23.1 and 18 and 22.3 and 22.6 | Body weight (Fig. 6a) (DSS-induced colitis mice; Compound 3 5 mg/kg, day 14, 5 mg/kg): 21.5 and 17.4 and 22.3 and 23.4 and 19.2 and 22.4 (2×) | HE staining score (Fig. 6d) (DSS-induced colitis mice; Compound 3 5 mg/kg, individual colon tissues (n = 7), 5 mg/kg): 3 and 1 and 2 | symptoms in DSS-induced murine colitis (DSS-induced colitis mice; compound 3 5 mg/kg, Fedratinib 10 mg/kg): ameliorate the symptoms | IC50 (JAK2): 6 nM
